The text below walks through data of patent US10406140B2, “5-substituted benzimidazole and 5-substituted azabenzimidazole derivative both having AMPK activation effect” (Shionogi & Co., Ltd., priority 2016, dated 2019).

This experiment concerns the target T1, Human AMPK α2ß2γ1 (Homo sapiens, UniProt O43741+P54646).
T1 construct: The full length cDNAs of human AMPK ß2 (NM_005399.3) and human AMPK α2 (NM_006252.3); The full length cDNAs of human AMPK ß2 (NM_005399.3); 6xHis (N); made in house; host or cells: Escherichia coli BL21 CodonPlus (DE3)-RIL
The experiment can be described thus: Test Example 2: activator evaluation on phosphorylated human AMPK α2ß2γ1 (mobility-shift assay, FL-Peptide 7). Particulars: human AMPK α2ß2γ1 pre-phosphorylated with CaMKK2; for EC150 (compound concentration showing 150% relative to the control (100%)): 25° C., 2 hours, 1% DMSO; for Emax: control without compound = 100%, read-out: Emax (maximum rate of increase in activity within the measurement range). Type of experiment: biochemical. As to the method: The full length cDNAs of human AMPK ß2 (NM_005399.3) and human AMPK α2 (NM_006252.3) were inserted into the MCS1 and MCS2 of the pETDuet-1 vector to prepare a human AMPK ß2 and human AMPK α2 (6× His tag at the 5′ terminus) expressing plasmid. The plasmid was cotransfected with an expression plasmid, in which the full length cDNA of human AMPK γ1 (NM_002733.3) had been inserted into pET28b(+), into BL21 CodonPlus (DE3)-RIL to obtain an expression strain. The expression strain was cultured in TB medium, followed by induction with 0.5 mM IPTG, and cultured at 25° C. for 3 hours and then harvested.
Preparation method of human CaMKK2 used to impart activity to AMPK An expression vector, in which the full length cDNA of human CAMKK ß (NM_172226.1) had been inserted into pGEX-6P-3, was transfected into BL21 Star (DE3). The expression strain was cultured in TB medium, followed by induction with 0.5 mM IPTG, and cultured at 25° C. for 3 hours and then harvested.
Thus, phosphorylation treatment was carried out as pretreatment.
Human AMPK α2ß2γ1 in an amount to give a conversion rate of approximately 10% by reaction for 2 hours, and CaMKK2 in an amount capable of sufficiently imparting activity to AMPK for one hour were mixed in a buffer solution consisting of a 50 mM HEPES-NaOH buffer solution (pH 7.0), 100 mM NaCl, 5 mM magnesium chloride, 0.1% bovine serum albumin, 0.2 mM sodium orthovanadate(V), 1 mM ethylene glycol-bis(2-aminoethyl ether)-N,N,N′,N′-tetraacetic acid (EGTA), 5 mM disodium ß-glycerophosphate, 1 mM dithiothreitol and 0.2 mM ATP, and the resulting liquid was left to stand at 25° C. for 1 to 1.5 hours to sufficiently phosphorylate AMPK.
The resulting liquid was left to stand for 10 minutes.
The resulting liquid was allowed to react at 25° C. for 2 hours, and 10 μl of 20 mM EDTA was added thereto to stop the reaction.
To detect phosphorylated fluorescent substrates, the reaction mixture was applied to a measuring device, LabChip EZ Reader II manufactured by Caliper Life Science, Inc., for detecting fluorescence by using differences in mobility due to differences in charge. The setting conditions for the device were pressure, −1.5 PSI; upstream voltage, −2250 V; downstream voltage, −400 V; post sample buffer sip time, 40 seconds; final delay, 120 seconds; and peak order, Product First.
A conversion rate was calculated from the peak heights of the obtained substrate and product. The conversion rate when not containing a compound was used as a control, and a concentration dependent curve was made by plotting the rate of increase in activity to the control at each concentration of a compound.

T1 sequence (P54646 whole entry): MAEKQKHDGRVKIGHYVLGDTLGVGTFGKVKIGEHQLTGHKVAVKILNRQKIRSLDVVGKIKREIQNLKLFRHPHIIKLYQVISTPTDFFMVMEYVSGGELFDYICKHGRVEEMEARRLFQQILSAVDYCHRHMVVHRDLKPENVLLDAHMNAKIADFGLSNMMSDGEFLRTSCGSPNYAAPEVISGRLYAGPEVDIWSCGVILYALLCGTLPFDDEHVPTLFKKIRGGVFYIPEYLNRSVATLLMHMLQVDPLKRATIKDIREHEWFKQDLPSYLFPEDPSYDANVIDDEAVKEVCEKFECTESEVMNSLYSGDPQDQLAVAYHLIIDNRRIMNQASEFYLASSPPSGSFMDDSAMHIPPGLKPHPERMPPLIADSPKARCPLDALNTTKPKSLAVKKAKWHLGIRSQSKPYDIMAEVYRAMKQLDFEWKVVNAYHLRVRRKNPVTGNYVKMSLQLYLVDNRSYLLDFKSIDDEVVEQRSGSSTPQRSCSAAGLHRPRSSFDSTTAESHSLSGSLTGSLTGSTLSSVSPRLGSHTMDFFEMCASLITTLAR
T1 sequence (O43741 whole entry): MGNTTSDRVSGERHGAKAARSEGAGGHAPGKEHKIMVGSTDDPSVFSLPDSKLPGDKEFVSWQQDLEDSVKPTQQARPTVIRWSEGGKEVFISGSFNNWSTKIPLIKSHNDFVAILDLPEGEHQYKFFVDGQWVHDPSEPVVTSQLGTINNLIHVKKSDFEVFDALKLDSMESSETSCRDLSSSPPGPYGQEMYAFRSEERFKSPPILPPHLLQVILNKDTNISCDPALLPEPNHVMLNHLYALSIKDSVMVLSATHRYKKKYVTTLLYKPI
T1 sequence (P54619 whole entry partner): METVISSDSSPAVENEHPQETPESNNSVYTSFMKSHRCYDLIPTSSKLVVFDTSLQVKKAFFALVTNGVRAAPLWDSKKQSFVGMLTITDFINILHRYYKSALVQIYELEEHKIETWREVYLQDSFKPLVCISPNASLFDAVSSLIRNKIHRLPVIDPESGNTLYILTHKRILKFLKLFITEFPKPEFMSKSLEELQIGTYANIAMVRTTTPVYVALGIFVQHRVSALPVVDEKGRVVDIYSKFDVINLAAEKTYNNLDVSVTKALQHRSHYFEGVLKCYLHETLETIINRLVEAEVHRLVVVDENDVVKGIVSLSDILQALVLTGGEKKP

Consider `CS(C)(=O)=Nc1ccc(-c2ccc(-c3nc4nc(O[C@@H]5CO[C@H](CO)C5(F)F)[nH]c4cc3Cl)cc2)nc1` [Compound (I-2-4)], for which the “EC150 (compound concentration showing 150% relative to the control (100%))” value is recorded as 9.7 nM and the maximum response (Emax) was 493%.
The matching figures for `CS(C)(=O)=Nc1ccc(-c2ccc(-c3nc4nc(O[C@@H]5CO[C@H](CO)[C@H]5F)[nH]c4cc3F)cc2)cc1` [Compound (I-1-10)]: 3.1 nM and 399%.
Turning to `COC(=O)NC1CC=C(c2ccc(-c3nc4nc(O[C@@H]5CO[C@H](CO)[C@H]5F)[nH]c4cc3Cl)cc2)CC1` (some centres unmarked) [Compound (I-1-8)], the “EC150 (compound concentration showing 150% relative to the control (100%))” value amounted to 21 nM and the Emax was found to be 412%.
As for `CS(C)(=O)=Nc1ccc(-c2ccc(-c3nc4nc(O[C@@H]5CO[C@H](CO)C5(F)F)[nH]c4cc3Cl)c(F)c2)cc1` [Compound (I-2-3)], the “EC150 (compound concentration showing 150% relative to the control (100%))” value came out at 4.2 nM and the Emax came to 609%.
Taken in the same sequence, the figures for `CS(C)(=O)=Nc1ccc(-c2ccc(-c3nc4nc(O[C@@H]5CO[C@H]6[C@@H]5OC[C@H]6O)[nH]c4cc3F)cc2)cc1` [Compound (I-1-2)] were 0.93 nM and 556%.
Regarding `CS(C)(=O)=Nc1ccc(-c2ccc(-c3nc4nc(O[C@@H]5CO[C@H](CO)C5(F)F)[nH]c4cc3F)cc2)nc1` [Compound (I-2-7)], the “EC150 (compound concentration showing 150% relative to the control (100%))” value was determined as 3.1 nM and the maximal response (Emax) came to 445%.
As for `CS(C)(=O)=Nc1ccc(-c2ccc(-c3nc4nc(OCCO)[nH]c4cc3Cl)cc2)cc1` [Compound (I-1-3)], the “EC150 (compound concentration showing 150% relative to the control (100%))” value was 19 nM and the maximum response (Emax) was 235%.
The matching figures for `COC(=O)NC1CC=C(c2ccc(-c3nc4nc(O[C@@H]5CO[C@H](CO)C5(F)F)[nH]c4cc3Cl)cc2)CC1` (some centres unmarked) [Compound (I-1-9)]: 9.5 nM and 389%.
With `CN=S(C)(=N)c1ccc(-c2ccc(-c3nc4nc(O[C@@H]5CO[C@H](CO)C5(F)F)[nH]c4cc3F)cc2)cc1` (some centres unmarked) [Compound (I-2-11)], the “EC150 (compound concentration showing 150% relative to the control (100%))” value was found to be 1.2 nM and the maximal response (Emax) is 649%.
Turning to `CS(C)(=O)=Nc1ccc(-c2ccc(-c3nc4nc(O[C@@H]5CO[C@H](CO)[C@@H]5F)[nH]c4cc3Cl)cc2)cc1` [Compound (I-1-6)], the “EC150 (compound concentration showing 150% relative to the control (100%))” value is on record as 7.4 nM and the maximal effect (Emax) is 514%.
As to `CCS(=O)(CC)=Nc1ccc(-c2ccc(-c3nc4nc(O[C@@H]5CO[C@H](CO)C5(F)F)[nH]c4cc3Cl)cc2)cc1` [Compound (I-2-5)], the “EC150 (compound concentration showing 150% relative to the control (100%))” value turned out to be 6.2 nM and the maximum response (Emax) was determined as 575%.
For `CN=S(C)(=N)c1ccc(-c2ccc(-c3nc4nc(O[C@@H]5CO[C@H](CO)C5(F)F)[nH]c4cc3Cl)cc2)cc1` (some centres unmarked) [Compound (I-2-2)], the “EC150 (compound concentration showing 150% relative to the control (100%))” value is on record as 3.1 nM and the maximum response (Emax) was determined as 604%.
For the compound `CNS(C)(=O)=Nc1ccc(-c2ccc(-c3nc4nc(O[C@@H]5CO[C@H](CO)C5(F)F)[nH]c4cc3Cl)cc2)cc1` (some centres unmarked) [Compound (I-1-12)], the “EC150 (compound concentration showing 150% relative to the control (100%))” value stood at 2.4 nM and the Emax amounted to 649%.
Turning to `CS(C)(=O)=Nc1ccc(-c2ccc(-c3nc4nc(O[C@@H]5CO[C@H](CO)C5(F)F)[nH]c4cc3F)cc2)cc1` [Compound (I-1-11)], the “EC150 (compound concentration showing 150% relative to the control (100%))” value is 1.1 nM and the Emax was found to be 601%.
On to `CS(C)(=O)=NC1CC=C(c2ccc(-c3nc4nc(O[C@@H]5CO[C@H](CO)C5(F)F)[nH]c4cc3F)cc2)CC1` (some centres unmarked) [Compound (I-2-10)], for which the “EC150 (compound concentration showing 150% relative to the control (100%))” value was 2.1 nM and the Emax stood at 604%.
For `CCS(=O)(CC)=Nc1ccc(-c2ccc(-c3nc4nc(O[C@@H]5CO[C@H](CO)C5(F)F)[nH]c4cc3F)cc2)cc1` [Compound (I-2-12)], the “EC150 (compound concentration showing 150% relative to the control (100%))” value is 0.54 nM and the maximal effect (Emax) stood at 595%.
For `O=S1(=Nc2ccc(-c3ccc(-c4nc5nc(O[C@@H]6CO[C@H](CO)C6(F)F)[nH]c5cc4Cl)cc3)cc2)CCOCC1` [Compound (I-2-6)], the “EC150 (compound concentration showing 150% relative to the control (100%))” value is 3.0 nM and the Emax was determined as 578%.
Taken in the same sequence, the figures for `CS(C)(=O)=NC1CC=C(c2ccc(-c3nc4nc(O[C@@H]5CO[C@H](CO)C5(F)F)[nH]c4cc3Cl)cc2)CC1` (some centres unmarked) [Compound (I-2-9)] were 1.3 nM and 652%.
Take `CS(C)(=O)=Nc1ccc(-c2ccc(-c3nc4nc(O[C@@H]5CO[C@H](CO)C5(F)F)[nH]c4cc3Cl)cc2)cc1` [Compound (I-1-7)]: the “EC150 (compound concentration showing 150% relative to the control (100%))” value came to 2.1 nM and the maximum response (Emax) was determined as 504%.
As to `CS(C)(=O)=Nc1ccc(-c2ccc(-c3nc4nc(O[C@@H]5CO[C@H](CO)C5(F)F)[nH]c4cc3F)c(F)c2)cc1` [Compound (I-2-8)], the “EC150 (compound concentration showing 150% relative to the control (100%))” value came to 0.75 nM and the maximum response (Emax) amounted to 619%.
Take `CC(=O)NC(C)(C)c1ccc(Oc2nc3nc(-c4ccc(-c5ccc(N=S(C)(C)=O)cc5)cc4)c(Cl)cc3[nH]2)cc1` [Compound (I-1-4)]: the “EC150 (compound concentration showing 150% relative to the control (100%))” value came out at 3.8 nM and the maximal response (Emax) turned out to be 364%.
Consider `CS(C)(=O)=Nc1ccc(-c2ccc(-c3nc4nc(O[C@@H]5CO[C@H](CO)[C@H]5F)[nH]c4cc3Cl)cc2)cc1` [Compound (I-1-5)], for which the “EC150 (compound concentration showing 150% relative to the control (100%))” value is on record as 1.4 nM and the maximum response (Emax) was 539%.
